What all share (test): Cancer cell growth inhibition, SRB assay
Holding throughout (assay type): cell-based, human
In general terms: The SRB assay estimates cell density from bound dye.

One experiment relates to COLO-205. Particulars: Homo sapiens, 144 h; COLO-205 (Colon); SRB at Day 6; triplicate.
Another experiment has as its system SW626. Particulars: Homo sapiens, 144 h; SW626 (Ovarian); SRB at Day 6; triplicate. The method in brief: (§1)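 Cells were seeded at 1,500-5,000 per well and, after 24 h, switched from DMEM with 10% FBS to DMEM with 3% FBS before compound addition at 0.1% final DMSO. Viability was measured by SRB staining on Day 6, and GI50 was taken as the concentration giving 50% growth inhibition versus DMSO-treated controls.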

A further experiment concerns MCF-7. Particulars: Homo sapiens, MCF7, 144 h; MCF-7 (Breast); SRB at Day 6; triplicate. The procedure, abridged: as §1
For a further experiment, the system named is SW620. Particulars: Homo sapiens, SW-620, 144 h; SW620 (Colon); SRB at Day 6; triplicate.

As a reminder, the GI50 is the concentration giving 50% growth inhibition. Lower therefore signals greater sensitivity of the cells.

As for `CCCCCc1ccc(S(=O)(=O)NC2(CC(=O)O)C[N+](C)(C)C2)cc1` [Example S29, 3-(carboxymethyl)-1,1-dimethyl-3-(4-pentylphenylsulfonamido)-azetidinium 2,2,2-trifluoroacetate], the 50% growth inhibitory concentration (GI50) with COLO-205 was 28 µM; in the experiment with SW626, greater than 50 µM; in the experiment on MCF-7 it was 44 µM; in the experiment on SW620, greater than 77 µM.

On to `CCCCCCCCc1ccc(N(C)S(=O)(=O)NC2(CC(=O)O)CCC[N+](C)(C)C2)cc1` (centres unmarked) [Example S30, 3-(carboxymethyl)-1,1-dimethyl-3-(N-methyl-N-(4-octylphenyl)-sulfamoylamino)piperidinium 2,2,2-trifluoroacetate], for which the GI50 was found to be 1.6 µM in the experiment with COLO-205, 21 µM in the experiment on SW626, 3.1 µM in the experiment on MCF-7 and 3.5 µM with SW620.

The values above are taken from patent publication US8680282B2, “Cyclic inhibitors of carnitine palmitoyltransferase and treating cancer” (University Health Network, priority 2007, dated 2014).
